The results in this text go back to patent US9422240B2, “Partially saturated nitrogen-containing heterocyclic compound” (TAISHO PHARMACEUTICAL CO., LTD, priority 2012, dated 2016).

Where a name gives a salt, the structure may show the parent alone. Read-outs that look alike come from different tables or passages of the source.

For the test, the target named is human PHD2 (Homo sapiens (Human), UniProt Q9GZT9). In words: Test 2: human PHD2 inhibitory activity, fluorescence polarization assay of HIF-1α peptide proline hydroxylation. The class given is biochemical. The settings on record: for inhibition at 1 µM: read-out: Percent inhibition (% at 1 μM). The method, then: (1) Expression and Preparation of Human PHD2
Sequence of human PHD2 (Q9GZT9 whole entry): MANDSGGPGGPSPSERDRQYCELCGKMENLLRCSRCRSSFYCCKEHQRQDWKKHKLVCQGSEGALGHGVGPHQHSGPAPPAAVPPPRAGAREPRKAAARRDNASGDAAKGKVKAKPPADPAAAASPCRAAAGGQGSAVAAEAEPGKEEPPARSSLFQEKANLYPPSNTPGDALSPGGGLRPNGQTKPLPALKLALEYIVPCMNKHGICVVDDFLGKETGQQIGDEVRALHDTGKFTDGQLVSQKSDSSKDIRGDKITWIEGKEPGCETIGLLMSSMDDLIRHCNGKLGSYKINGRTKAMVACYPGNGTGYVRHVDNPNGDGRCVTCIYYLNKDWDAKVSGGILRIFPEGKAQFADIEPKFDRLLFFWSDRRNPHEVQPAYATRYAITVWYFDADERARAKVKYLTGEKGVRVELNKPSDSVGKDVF
A registered sequence of human PHD2 (NM_022051) was introduced into pcDNA3.1/Hygro(+) vector (Invitrogen), and the sequence was verified. […] The suspension of disrupted cells was centrifuged at 4° C. and 100,000×g for 30 minutes and the supernatant was recovered as a cell lysate.
(2) Measurement of Human PHD2 Inhibitory Activity
The activity of human PHD2 enzyme was measured with a substrate which is a 19-residue partial peptide based on the sequence of HIF-1α; specifically, the hydroxylation of a proline residue in the peptide was measured by FP (Fluorescence Polarization).
A test compound and the substrate solution were preliminarily added onto 384-well plates and reaction was initiated by adding a human PHD2 enzyme solution (40 ng/well). After 20-min incubation at 30° C., an EDTA-containing quench solution was added and the amount of the proline residues hydroxylated via binding to an added HIF—OH antibody solution was quantified by fluorescence polarization.
The fluorescence polarization of each well was measured and the human PHD2 inhibitory activity of each test compound was calculated on the basis of the values for the test compound-free group.

[1] abbreviates: test compound's concentration 1 μM, Test 2, fluorescence polarization assay.

The inhibition is the relative decrease from the control value, in per cent. Consider `Cc1csc(CN2CCC(O)=C(C(=O)NCC(=O)O)C2=O)n1` [Ex. 1-341], for which, under setting [1], the inhibition at 1 µM was found to be 66%.
Take `O=C(O)CNC(=O)C1=C(O)CCN(CC2CCC(Oc3ccccc3)CC2)C1=O` (stereo not shown) [Ex. 1-391]: the “Percent inhibition (% at 1 μM)” value under setting [1] came to 82%.
With `NS(=O)(=O)c1ccc(-c2ccc(CN3CCC(O)=C(C(=O)NCC(=O)O)C3=O)cc2)cc1` [Ex. 2-55, N-({4-Hydroxy-2-oxo-1-[(4′-sulfamoyl-4-biphenylyl)methyl]-1,2,5,6-tetrahydro-3-pyridinyl}carbonyl)glycine], the inhibition at 1 µM under setting [1] was 97%.
Consider `CC(C)(CN1CCC(O)=C(C(=O)NCC(=O)O)C1=O)c1ccc(Cl)cc1` [Ex. 1-413], for which, under setting [1], the inhibition at 1 µM is 75%.
Still for that read-out and setting: the value for `COc1ccc(CN2CCC(O)=C(C(=O)NCCC(=O)O)C2=O)cc1` [Ex. 9-1, N-{[4-Hydroxy-1-(4-methoxybenzyl)-2-oxo-1,2,5,6-tetrahydro-3-pyridinyl]carbonyl}-β-alanine] was 29%.
For `Cc1ccc(-c2ccc(CN3CCC(O)=C(C(=O)NCC(=O)O)C3=O)nc2)cc1` [Ex. 2-44], the inhibition at 1 µM under setting [1] came out at 96%.
Same read-out and setting: under `O=C(O)CNC(=O)C1=C(O)CCN(C[C@H]2C[C@H](OCc3ccc(Cl)cc3)C2)C1=O` [Ex. 1-457] stands 94%.
Still for that read-out and setting: under `O=C(O)CNC(=O)C1=C(O)CCN(Cc2ccc(OCn3nnc4ccccc43)cc2)C1=O` [Ex. 1-461] stands 95%; under `COc1ccc(CN2CCC(O)=C(C(=O)NCC(=O)NO)C2=O)cc1` [Ex. 8-1, 4-Hydroxy-N-[2-(hydroxyamino)-2-oxoethyl]-1-(4-methoxybenzyl)-2-oxo-1,2,5,6-tetrahydro-3-pyridinecarboxamide], 16%.
On to `O=C(O)CNC(=O)C1=C(O)CCN(Cc2ccc(OCc3cn4ccsc4n3)cc2)C1=O` [Ex. 1-407], for which the inhibition at 1 µM under setting [1] is 85%.
Turning to `COc1cccc(-c2ccc(CN3CCC(O)=C(C(=O)NCC(=O)O)C3=O)cc2)n1` [Ex. 1-421], under setting [1], the inhibition at 1 µM came out at 99%.
As to `O=C(O)CNC(=O)C1=C(O)CCN(Cc2ccc(OCc3ccccc3)c(F)c2)C1=O` [Ex. 1-374], the inhibition at 1 µM under setting [1] stood at 96%.
Still for that read-out and setting: the value for `COc1cncc(-c2ccc(CN3CCC(O)=C(C(=O)NCC(=O)O)C3=O)cc2)c1` [Ex. 2-53] was 97%; that for `O=C(O)CNC(=O)C1=C(O)CCN(Cc2ccc(-c3cnc(O)s3)cc2)C1=O` [Ex. 2-43] was 95%; that for `O=C(O)CNC(=O)C1=C(O)CC2(CCN(Cc3ccccc3)CC2)N(Cc2ccc(-c3ccccc3)cc2)C1=O` [Ex. 7-2, N-{[9-Benzyl-1-(4-biphenylylmethyl)-4-hydroxy-2-oxo-1,9-diazaspiro[5.5]undec-3-en-3-yl]carbonyl}glycine trifluoroacetate] was 88%.
With `O=C(O)CNC(=O)C1=C(O)CCN(C[C@H]2C[C@H](Oc3cccc(Cl)c3)C2)C1=O` [Ex. 1-460], under setting [1], the inhibition at 1 µM was determined as 92%.
On the same count and under the same terms, the value for `O=C(O)CNC(=O)C1=C(O)CCN(Cc2ccc(C(=O)NCCc3ccccn3)cc2)C1=O` [Ex. 1-349] was 74%.
In the case of `C[C@H]1CC(O)=C(C(=O)NCC(=O)O)C(=O)N1Cc1ccc(OCC2CC2)cc1` [Ex. 6-2, N-({(6S)-1-[4-(Cyclopropylmethoxy)benzyl]-4-hydroxy-6-methyl-2-oxo-1,2,5,6-tetrahydro-3-pyridinyl}carbonyl)glycine sodium salt], the inhibition at 1 µM is 77%.
On to `O=C(O)CNC(=O)C1=C(O)C2(CCCC2)N(Cc2ccc(-c3ccccc3)cc2)C1=O` [Ex. 6-1, N-{[1-(4-Biphenylylmethyl)-4-hydroxy-2-oxo-1-azaspiro[4.4]non-3-en-3-yl]carbonyl}glycine], for which the inhibition at 1 µM under setting [1] was determined as 91%.
Take `O=C(O)CNC(=O)C1=C(O)CCN(Cc2ccc(-c3ccc(S(=O)(=O)NCCO)cc3)cc2)C1=O` [Ex. 2-57]: under setting [1], the inhibition at 1 µM came out at 94%.
What is called IC50 is the concentration needed to halve the response being measured. As to `CCc1ccc(Oc2ccc(CN3CCC(O)=C(C(=O)NCC(=O)O)C3=O)cn2)cc1` [Ex. 1-376], the IC50 (human PHD2, fluorescence polarization assay, 20-min incubation at 30° C.) worked out at 0.022 µM. In addition, the inhibition at 1 µM under setting [1] turned out to be 100%.
